In patent publication US5756763A, “Pyrrolidine derivatives” (Zaidan Hojin Biseibutsu Kagaku Kenkyukai, priority 1993, dated 1998):
pIC50: −log10 of the molar value.

Key:
[1] = system: prolyl endopeptidase in mouse brain; assay: Prolyl endopeptidase inhibition activity in mouse brain after intravenous administration; format: in vivo, mouse (male ddy strain); conditions: 30 mg/kg i.v., 30 minutes after administration, control = 100
Method: (§1) Using 0.1 mM of benzyolxycarbonylglycylproline-β-naphthylamide as substrate and swine kidney-derived prolyl endopeptidase as enzyme, the enzyme was acted on the substrate at 37° C. for 30 minutes in 0.025 M Tris(hydroxymethyl)methane amine-hydrochloric acid (pH 7.5) solution. Fast Garnet was added to form a color and absorbance was measured at 525 nm. The inhibitory activity is expressed in terms of concentration required for 50% inhibition (IC50).
Each of the compounds of the present invention was dissolved in physiological saline or physiological saline added with a surfactant. The solution was intravenously administered to male ddy strain mice (3 in one group) at a dose of 30 mg/kg. For control, physiological saline or a surfactant alone was intravenously given to 3 mice in a similar manner.
Thirty minutes after administration, the animal was bled to death and the whole brain was excised out. Each brain was homogenized with 20-fold volume of 0.1M phosphate buffer containing 2 mM DTT and the homogenate was centrifuged at 3000 g for 20 minutes. The prolyl endopeptidase in the resulting supernatant was determined as in Experiment 1, as β-naphthylamine isolated. When the mean enzyme activity in the mouse brain for control is made 100 (β-naphthylamine value: 3.88±0.26), the residual enzyme activity was determined when the compounds of the present invention was administered.

[2] = target: T1, prolyl endopeptidase (Sus scrofa, UniProt P23687); assay: Enzyme inhibitory action on swine kidney-derived prolyl endopeptidase (Z-Gly-Pro-β-naphthylamide substrate); format: biochemical; conditions: for pIC50: swine kidney prolyl endopeptidase, 0.1 mM substrate, 37° C., 30 minutes, pH 7.5; for prolyl endopeptidase inhibition activity (in words): in vitro, qualitative statement
T1 construct: swine kidney-derived prolyl endopeptidase; from tissue; host or cells: swine kidney
T1 sequence (P23687 whole entry): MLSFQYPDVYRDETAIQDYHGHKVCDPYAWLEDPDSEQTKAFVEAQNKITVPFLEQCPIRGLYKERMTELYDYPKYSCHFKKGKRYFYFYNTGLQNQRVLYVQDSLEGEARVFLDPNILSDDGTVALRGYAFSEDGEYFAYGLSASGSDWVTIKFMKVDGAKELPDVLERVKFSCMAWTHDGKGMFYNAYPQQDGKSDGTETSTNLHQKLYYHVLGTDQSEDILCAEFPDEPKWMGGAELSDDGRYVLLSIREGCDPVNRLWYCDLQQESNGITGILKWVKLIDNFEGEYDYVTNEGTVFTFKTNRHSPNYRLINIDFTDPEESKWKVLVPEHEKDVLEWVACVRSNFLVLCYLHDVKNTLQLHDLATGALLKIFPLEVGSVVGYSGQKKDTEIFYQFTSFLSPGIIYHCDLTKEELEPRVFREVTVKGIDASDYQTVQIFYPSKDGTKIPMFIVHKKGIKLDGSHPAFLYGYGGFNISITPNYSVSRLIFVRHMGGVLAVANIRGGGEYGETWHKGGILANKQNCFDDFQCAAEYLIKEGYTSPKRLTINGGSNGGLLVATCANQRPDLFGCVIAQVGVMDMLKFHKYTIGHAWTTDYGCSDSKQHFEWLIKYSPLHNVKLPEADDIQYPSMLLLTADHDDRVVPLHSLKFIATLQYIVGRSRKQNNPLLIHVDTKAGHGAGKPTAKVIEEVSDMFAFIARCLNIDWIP
Method: as §1

Structure (SMILES) | Residual Enzyme Activity (%) [1] [%] | pIC50 [2] | prolyl endopeptidase inhibition activity (in words) [2]
O=C(NC1CCCCC1)C(=O)C1CCCN1C(=O)C(Cc1ccccc1)NC(=O)c1ccccn1 (centres unmarked) [Example 26, N-Cyclohexyl-2-oxo-2-[2-(1-(N-(2-pyridylcarbonyl)phenylalanyl)pyrrolidinyl)]acetamide] | 5.7 | 8.75 | –
O=C(NC(Cc1ccccc1)C(=O)N1CCCC1C(=O)C(=O)NC1CCCCC1)OCc1ccccc1 (centres unmarked) [Example 45, N-Cyclohexyl-2-oxo-2-[2-(1-(N-benzyloxycarbonylphenylalanyl)pyrrolidinyl)]acetamide] | – | 8.62 | –
O=C(CSc1ccccc1)NC(Cc1ccccc1)C(=O)N1CCCC1C(=O)C(=O)NC1CCCCC1 (centres unmarked) [Example 47, N-Cyclohexyl-2-oxo-2-[2-(1-(N-(phenylthioacetyl)-phenylalanyl)pyrrolidinyl)]acetamide] | – | 8.81 | –
O=C(NC1CCCCC1)C(=O)C1CCCN1C(=O)C(Cc1ccccc1)NC(=O)c1ccncc1 (centres unmarked) [Example 49, N-Cyclohexyl-2-oxo-2-[2-(1-(N-(isonicotinonyl)-phenylalanyl)pyrrolidinyl)]acetamide] | – | 8.19 | –
O=C(CSc1ccncc1)NC(Cc1ccccc1)C(=O)N1CCCC1C(=O)C(=O)NC1CCCCC1 (centres unmarked) [Example 51, N-Cyclohexyl-2-oxo-2-[2-(1-(N-(4-pyridylthioacetyl)-phenylalanyl)pyrrolidinyl)]acetamide] | – | 8.57 | –
O=C(NC1CCCCC1)C(=O)C1CCCN1C(=O)C(Cc1ccccc1)NC(=O)c1cccnc1 (centres unmarked) [Example 53, N-Cyclohexyl-2-oxo-2-[2-(1-(N-(nicotinonyl)phenylalanyl)pyrrolidinyl)]acetamide] | – | 8.38 | –
O=C(NC1CCCCC1)C(=O)C1CCCN1C(=O)C1CCCN1C(=O)CSc1ccncc1 (centres unmarked) [Example 55, N-Cyclohexyl-2-oxo-2-[2-(1-(N-(4-pyridylthioacetyl)prolyl)pyrrolidinyl)]acetamide] | – | 8.77 | –
O=C(NC1CCCCC1)C(=O)C1CCCN1C(=O)[C@H](Cc1ccccc1)NC(=O)c1ccc(CN2CCOCC2)cc1 (some centres unmarked) [Example 57, N-Cyclohexyl-2-oxo-2-[2-(1-(N-(4-morpholinomethylbenzoyl)phenylalanyl)pyrrolidinyl)]acetamide] | – | 8.03 | –
O=C(NC1CCCCC1)C(=O)C1CCCN1C(=O)CN(Cc1ccccc1)C(=O)c1ccncc1 (centres unmarked) [Example 60, N-Cyclohexyl-2-oxo-2-[2-(1-(N-isonicotinonyl-N-benzylglycyl)pyrrolidinyl)]acetamide] | – | 8.05 | –
O=C(NC1CCCCC1)C(=O)C1CCCN1C(=O)c1ccc2ccccc2c1 (centres unmarked) [Example 64, N-Cyclohexyl-2-oxo-2-[2-(1-(2-naphthoyl)pyrrolidinyl)]acetamide] | 50.5 | 7.66 | –
O=C(NC1CCCCC1)C(=O)C1CCCN1C(=O)c1ccc2ccccc2n1 (centres unmarked) [Example 66, N-Cyclohexyl-2-oxo-2-[2-(1-(2-quinolylcarbonyl)pyrrolidinyl)]acetamide] | – | 7.58 | –
O=C(NC1CCCCC1)C(=O)C1CCCN1C(=O)C=Cc1ccccc1 (centres unmarked) [Example 68, N-Cyclohexyl-2-oxo-2-[2-(1-cinnamoylpyrrolidinyl)]acetamide] | – | 7.32 | –
O=C(NC1CCCCC1)C(=O)C1CCCN1C(=O)C=Cc1ccc(Cl)cc1 (centres unmarked) [Example 70, N-Cyclohexyl-2-oxo-2-[2-(1-(3-(4-chlorophenyl)acryloyl)pyrrolidinyl)]acetamide] | – | 6.96 | –
O=C(NC1CCCCC1)C(=O)C1CCCN1C(=O)C=Cc1cccnc1 (centres unmarked) [Example 72, N-Cyclohexyl-2-oxo-2-[2-(1-(3-(3-pyridyl)acryloyl)pyrrolidinyl)]acetamide] | – | 6.62 | –
O=C(NC1CCCCC1)C(=O)C1CCCN1C(=O)c1ccccn1 (centres unmarked) [Example 74, N-Cyclohexyl-2-oxo-2-[2-(1-(2-pyridylcarbonyl)pyrrolidinyl)]acetamide] | – | 7.01 | –
O=C(NC1CCCCC1)C(=O)C1CCCN1C(=O)c1cccc(Oc2ccccc2)c1 (centres unmarked) [Example 76, N-Cyclohexyl-2-oxo-2-[2-(1-(3-phenoxybenzoyl)pyrrolidinyl)]acetamide] | – | 7.86 | –
O=C(NC1CCCCCC1)C(=O)C1CCCN1C(=O)c1ccc2ccccc2c1 (centres unmarked) [Example 78, N-Cycloheptyl-2-oxo-2-[2-(1-(2-naphthoyl)pyrrolidinyl)]acetamide] | – | 7.63 | –
O=C(NC1CCCCC1)C(=O)C1CCCN1C(=O)c1ccc(CN2CCOCC2)cc1 (centres unmarked) [Example 84, N-Cyclohexyl-2-oxo-2-[2-(1-(4-morpholinomethylbenzoyl)pyrrolidinyl)]acetamide] | 50.3 | 7.14 | –
O=C(NC1CCCCC1)C(=O)C1CCCN1C(=O)c1ccc(CN2CCCCC2)cc1 (centres unmarked) [Example 86, N-Cyclohexyl-2-oxo-2-[2-(1-(4-piperidinomethylbenzoyl)pyrrolidinyl)]acetamide] | – | 7.08 | –
O=C(NC1CCCCC1)C(=O)C1CCCN1C(=O)c1ccc(Cn2ccnc2)cc1 (centres unmarked) [Example 88] | – | 6.88 | –
O=C(NCc1nc2ccccc2[nH]1)C(=O)C1CCCN1C(=O)c1ccc(Cl)cc1 (centres unmarked) [Example 93, N-(2-Benzimidazolylmethyl)-2-oxo-2-[2-(1-(4-chlorobenzoyl)pyrrolidinyl)]acetamide] | – | 6.87 | –
O=C(NCCN1CCOCC1)C(=O)C1CCCN1C(=O)c1ccc(Cl)cc1 (centres unmarked) [Example 95, N-(2-Morpholinoethyl)-2-oxo-2-[2-(1-(4-chlorobenzoyl)-pyrrolidinyl)]acetamide] | – | 6.78 | –
O=C(NCCc1ccccn1)C(=O)C1CCCN1C(=O)c1ccc(Cl)cc1 (centres unmarked) [Example 97, N-(2-(2-Pyridyl)ethyl)-2-oxo-2-[2-(1-(4-chlorobenzoyl)pyrrolidinyl)]acetamide] | – | 7.04 | –
O=C(NC1CC1)C(=O)C1CCCN1C(=O)C(Cc1ccccc1)NC(=O)c1cccc(Oc2ccccc2)c1 (centres unmarked) [Example 108, N-Cyclopropyl-2-oxo-2-[2-(1-(N-(3-phenoxybenzoyl)phenylalanyl)pyrrolidinyl)]acetamide] | – | 8.88 | potent inhibition activity on almost the same level
O=C(NC1CCCCCCC1)C(=O)C1CCCN1C(=O)C(Cc1ccccc1)NC(=O)c1cccc(Oc2ccccc2)c1 (centres unmarked) [Example 113, N-Cyclooctyl-2-oxo-2-[2-(1-(N-(3-phenoxybenzoyl)phenylalanyl)pyrrolidinyl)]acetamide] | – | 8.80 | potent inhibition activity on almost the same level
O=C(NC1CCCCC1)C(=O)C1CCCN1C(=O)C(Cc1ccccc1)NC(=O)c1ccc2ccccc2n1 (centres unmarked) [Example 115, N-Cyclohexyl-2-oxo-2-[2-(1-(N-(2-quinolylcarbonyl)phenylalanyl)pyrrolidinyl)]acetamide] | – | 8.68 | –
CC(=O)NC(Cc1ccccc1)C(=O)N1CCCC1C(=O)C(=O)NC1CCCCC1 (centres unmarked) [Example 118, N-Cyclohexyl-2-oxo-2-[2-(1-(N-acetylphenylalanyl)pyrrolidinyl)]acetamide] | – | 8.69 | –
O=C(NC1CCCCC1)C(=O)C1CCCN1C(=O)C(CC1CCCCC1)NC(=O)c1ccc2ccccc2n1 (stereo not drawn) [Example 124, N-Cyclohexyl-2-oxo-2-[2-(1-(N-(2-quinolylcarbonyl)-β-cyclohexylalanyl)pyrrolidinyl)]acetamide] | – | 8.43 | –
CC(C)(C)OC(=O)N1c2ccccc2CC1C(=O)N1CCCC1C(=O)C(=O)NC1CCCCC1 (centres unmarked) [Example 126, N-Cyclohexyl-2-oxo-2-[2-(1-(1-t-butoxycarbonyl-2,3-dihydroindole-2-carbonyl)pyrrolidinyl)]acetamide] | – | 8.77 | –
O=C[C@@H]1CCCN1C(=O)[C@H](Cc1ccccc1)NC(=O)c1cccc(Oc2ccccc2)c1 [Reference Example 4, N-(N-(3-Phenoxybenzoyl)-L-phenylalanyl)-L-prolinal, reference compound] | – | 6.60 | –
